# Test results reported in patent US20030064895A1, “Genes for s-adenosyl l-methionine: jasmonic acid carboxyl methyltransferase and a method for the development of pathogen-and stress-resistant plants using the genes” (priority 2000, published 2003).
# Entries after “also recorded” stand apart in the source; their conditions may differ.
# How the values were obtained:
# [1] = target: T1, JMT enzyme (GST-JMT) (Arabidopsis thaliana, UniProt Q9AR07); experiment: Substrate specificity of fusion enzyme protein GST-JMT with SAM / [14C]SAM; format: biochemical; conditions: reaction with JA defined to be 100%
# T1 construct: it could be noted that this selected cDNA clone is a full-length cDNA clone; made in house; host or cells: E. coli BL21 (pGEX-2T, plasmid pGST-JMT)
# T1 sequence (Q9AR07 1-389): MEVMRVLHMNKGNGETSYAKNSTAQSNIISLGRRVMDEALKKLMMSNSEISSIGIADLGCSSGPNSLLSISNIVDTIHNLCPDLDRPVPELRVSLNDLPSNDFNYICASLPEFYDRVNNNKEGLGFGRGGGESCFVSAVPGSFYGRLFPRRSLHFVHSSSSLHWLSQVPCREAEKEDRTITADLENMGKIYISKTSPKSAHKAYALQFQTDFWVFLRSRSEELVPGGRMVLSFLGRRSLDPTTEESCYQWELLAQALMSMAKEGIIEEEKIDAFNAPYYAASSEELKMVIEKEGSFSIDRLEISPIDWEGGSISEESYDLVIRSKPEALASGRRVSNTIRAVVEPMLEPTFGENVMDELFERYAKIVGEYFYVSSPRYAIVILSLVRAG
# [2] = system: pathogens belonging to Phytium genus; conditions: treatment at the level of 130 μM; cited from earlier work
# [3] = target: T2, jasmonic acid carboxyl methyltransferase (Arabidopsis thaliana, UniProt Q9AR07); experiment: Kinetic parameters of recombinant JMT protein (Lineweaver-Burk plot); format: biochemical; conditions: named substance as substrate of recombinant JMT; for Km: SAM and JA as substrates
# T2 construct: it could be noted that this selected cDNA clone is a full-length cDNA clone; made in house; host or cells: E. coli BL21 (pGEX-2T, plasmid pGST-JMT)
# T2 sequence (Q9AR07 1-389): T1 sequence (Q9AR07 1-389)
Compound,reactivity as methyl acceptor substrate of JMT enzyme [1],effect on the growth of pathogen [2],Kcat [3],Vm [3],Km [3]
"O=C(O)c1ccccc1 [BA, benzoic acid]",substantially not react; also recorded: substantially not proceeded,,,,
"O=C(O)c1ccccc1O [SA, salicylic acid]",substantially not react; also recorded: substantially not proceeded,,,,
jasmonic acid [(±)JA],high reactivity,no effect,15 s⁻¹,30 nmol/min,38.5 µM
S-adenosyl methionine [SAM],,,70 s⁻¹,84 nmol/min,6.3 µM
